Reference: ChEMBL document CHEMBL1142146, “Quinupristin-dalfopristin nonsusceptibility in pneumococci from sickle cell disease patients” (2007)
Values after ≈ are worked out from the molar mass of the structure shown.

Columns and labels:
Format in all cases: functional
[1] = system: Streptococcus pneumoniae; experiment: Antibacterial activity against Pneumococcus DAW53 isolated from sickle cell disease patient
[2] = system: Streptococcus pneumoniae; experiment: Antibacterial activity against Pneumococcus DAW57 isolated from sickle cell disease patient
[3] = system: Streptococcus pneumoniae; experiment: Antibacterial activity against Pneumococcus DAW86 isolated from sickle cell disease patient
[4] = system: Streptococcus pneumoniae; experiment: Antibacterial activity against Pneumococcus DAW15 isolated from sickle cell disease patient
[5] = system: Streptococcus pneumoniae; experiment: Antibacterial activity against Pneumococcus DAW70 isolated from sickle cell disease patient
[6] = system: Streptococcus pneumoniae; experiment: Antibacterial activity against Pneumococcus DAW51 isolated from sickle cell disease patient
[7] = system: Streptococcus pneumoniae; experiment: Antibacterial activity against Pneumococcus DAW8 isolated from sickle cell disease patient
[8] = system: Streptococcus pneumoniae; experiment: Antibacterial activity against Pneumococcus CDC001 isolated from sickle cell disease patient
[9] = system: Streptococcus pneumoniae; experiment: Antibacterial activity against Pneumococcus DAW12 isolated from sickle cell disease patient
[10] = system: Streptococcus pneumoniae; experiment: Antibacterial activity against Pneumococcus DAW19 isolated from sickle cell disease patient
[11] = system: Streptococcus pneumoniae; experiment: Antibacterial activity against Pneumococcus DAW24 isolated from sickle cell disease patient
[12] = system: Streptococcus pneumoniae; experiment: Antibacterial activity against Pneumococcus DAW61 isolated from sickle cell disease patient
[13] = system: Streptococcus pneumoniae; experiment: Antibacterial activity against Pneumococcus DAW27 isolated from sickle cell disease patient
[14] = system: Streptococcus pneumoniae; experiment: Antibacterial activity against Pneumococcus CDC018 isolated from sickle cell disease patient
[15] = system: Streptococcus pneumoniae; experiment: Antibacterial activity against Pneumococcus DAW66 isolated from sickle cell disease patient
[16] = system: Streptococcus pneumoniae; experiment: Antibacterial activity against Pneumococcus CDC023 isolated from sickle cell disease patient
[17] = system: Streptococcus pneumoniae; experiment: Antibacterial activity against Pneumococcus DAW9 isolated from sickle cell disease patient
[18] = system: Streptococcus pneumoniae; experiment: Antibacterial activity against Pneumococcus DAW6 isolated from sickle cell disease patient
[19] = system: Streptococcus pneumoniae; experiment: Antibacterial activity against Pneumococcus DAW2 isolated from sickle cell disease patient
[20] = system: Streptococcus pneumoniae; experiment: Antibacterial activity against Pneumococcus CDC063 isolated from sickle cell disease patient
[21] = system: Streptococcus pneumoniae; experiment: Antibacterial activity against Pneumococcus CDC050 isolated from sickle cell disease patient
[22] = system: Streptococcus pneumoniae; experiment: Antibacterial activity against Pneumococcus DAW65 isolated from sickle cell disease patient
[23] = system: Streptococcus pneumoniae; experiment: Antibacterial activity against Pneumococcus DAW13 isolated from sickle cell disease patient
[24] = system: Streptococcus pneumoniae; experiment: Antibacterial activity against Pneumococcus DAW14 isolated from sickle cell disease patient
[25] = system: Streptococcus pneumoniae; experiment: Antibacterial activity against Pneumococcus CDC068 isolated from sickle cell disease patient
[26] = system: Streptococcus pneumoniae; experiment: Antibacterial activity against Pneumococcus DAW22 isolated from sickle cell disease patient
[27] = system: Streptococcus pneumoniae; experiment: Antibacterial activity against Pneumococcus DAW26 isolated from sickle cell disease patient
[28] = system: Streptococcus pneumoniae; experiment: Antibacterial activity against Pneumococcus DAW75 isolated from sickle cell disease patient
[29] = system: Streptococcus pneumoniae; experiment: Antibacterial activity against Pneumococcus DAW67 isolated from sickle cell disease patient
[30] = system: Streptococcus pneumoniae; experiment: Antibacterial activity against Pneumococcus DAW62 isolated from sickle cell disease patient
[31] = system: Streptococcus pneumoniae; experiment: Antibacterial activity against Pneumococcus CDC020 isolated from sickle cell disease patient
[32] = system: Streptococcus pneumoniae; experiment: Antibacterial activity against Pneumococcus CDC013 isolated from sickle cell disease patient
[33] = system: Streptococcus pneumoniae; experiment: Antibacterial activity against Pneumococcus DAW68 isolated from sickle cell disease patient

Row | Structure (SMILES) | MIC [1] [µg/mL] | MIC [2] [µg/mL] | MIC [3] [µg/mL] | MIC [4] [µg/mL] | MIC [5] [µg/mL] | MIC [6] [µg/mL] | MIC [7] [µg/mL] | MIC [8] [µg/mL] | MIC [9] [µg/mL] | MIC [10] [µg/mL] | MIC [11] [µg/mL] | MIC [12] [µg/mL] | MIC [13] [µg/mL] | MIC [14] [µg/mL] | MIC [15] [µg/mL] | MIC [16] [µg/mL] | MIC [17] [µg/mL] | MIC [18] [µg/mL] | MIC [19] [µg/mL] | MIC [20] [µg/mL] | other results
1 | CCC[C@@H]1C[C@@H](C(=O)N[C@@H]([C@H]2O[C@H](SC)[C@H](O)[C@@H](O)[C@H]2O)[C@H](C)Cl)N(C)C1 [CLINDAMYCIN] | 0.25 (≈ 0.588 µM) | 256 (≈ 602 µM) | 0.25 (≈ 0.588 µM) | 0.38 (≈ 0.894 µM) | 0.38 (≈ 0.894 µM) | 0.25 (≈ 0.588 µM) | 0.25 (≈ 0.588 µM) | 0.19 (≈ 0.447 µM) | 0.25 (≈ 0.588 µM) | 0.19 (≈ 0.447 µM) | 0.25 (≈ 0.588 µM) | 0.5 (≈ 1.18 µM) | 256 (≈ 602 µM) | 256 (≈ 602 µM) | 0.25 (≈ 0.588 µM) | 0.125 (≈ 0.294 µM) | 256 (≈ 602 µM) | 0.038 (≈ 0.0894 µM) | 0.25 (≈ 0.588 µM) | 0.25 (≈ 0.588 µM) | MIC [21]: 0.25 µg/mL (≈ 0.588 µM); MIC [22]: 0.25 µg/mL (≈ 0.588 µM); MIC [23]: 0.25 µg/mL (≈ 0.588 µM); MIC [24]: 0.25 µg/mL (≈ 0.588 µM); MIC [25]: 0.25 µg/mL (≈ 0.588 µM); MIC [26]: 256 µg/mL (≈ 602 µM); MIC [27]: 0.25 µg/mL (≈ 0.588 µM); MIC [28]: 0.125 µg/mL (≈ 0.294 µM)
2 | CC[C@H]1OC(=O)[C@H](C)[C@@H](O[C@H]2C[C@@](C)(OC)[C@@H](O)[C@H](C)O2)[C@H](C)[C@@H](O[C@@H]2O[C@H](C)C[C@H](N(C)C)[C@H]2O)[C@](C)(O)C[C@@H](C)C(=O)[C@H](C)[C@@H](O)[C@]1(C)O [ERYTHROMYCIN] | 0.25 (≈ 0.341 µM) | 256 (≈ 349 µM) | 0.19 (≈ 0.259 µM) | 0.19 (≈ 0.259 µM) | 0.19 (≈ 0.259 µM) | 0.19 (≈ 0.259 µM) | 0.125 (≈ 0.17 µM) | 0.19 (≈ 0.259 µM) | 0.19 (≈ 0.259 µM) | 24 (≈ 32.7 µM) | 0.125 (≈ 0.17 µM) | 256 (≈ 349 µM) | 256 (≈ 349 µM) | 256 (≈ 349 µM) | 0.19 (≈ 0.259 µM) | 0.125 (≈ 0.17 µM) | 256 (≈ 349 µM) | 0.25 (≈ 0.341 µM) | 0.125 (≈ 0.17 µM) | 32 (≈ 43.6 µM) | MIC [29]: 0.125 µg/mL (≈ 0.17 µM); MIC [30]: 0.125 µg/mL (≈ 0.17 µM); MIC [31]: 256 µg/mL (≈ 349 µM); MIC [32]: 0.125 µg/mL (≈ 0.17 µM); MIC [21]: 0.25 µg/mL (≈ 0.341 µM); MIC [22]: 0.19 µg/mL (≈ 0.259 µM); MIC [23]: 4 µg/mL (≈ 5.45 µM); MIC [24]: 0.19 µg/mL (≈ 0.259 µM); MIC [25]: 0.19 µg/mL (≈ 0.259 µM); MIC [26]: 256 µg/mL (≈ 349 µM); MIC [33]: 0.125 µg/mL (≈ 0.17 µM); MIC [27]: 0.125 µg/mL (≈ 0.17 µM); MIC [28]: 0.19 µg/mL (≈ 0.259 µM)
